# Data published in patent US20250281462A1, “THERAPEUTICALLY EFFECTIVE ORAL ADMINISTRATION OF A 2 ARYLBENZIMIDAZOLE” (Tranquis Therapeutics, Inc., priority 2021, published 2025).
# Values joined by “and” are separate entries in the source; they are usually repeats but may differ in a detail not shown here. Identical values can stand only once. Like-named read-outs stand apart in the source and are kept apart here.
# Key:
# [1] = Plasma concentrations of TQS-168 and TQS-621 after single oral dose 50 mg/kg in mice, three formulations; type: in vivo; conditions: for concentration at 12 h: male, C57BL/6, mouse, plasma, po, read-out: Calculated Concentration in plasma; for concentration at 12 h / Calculated Concentration in plasma: mice
# Method: In a second experiment, mice were administered 50 mg/kg TQS-168 by oral gavage. For Group 1, TQS-168 was prepared at a concentration of 5.0 mg/mL in a suspension with […] in PBS. For Group 2, TQS-168 was prepared at a concentration of 5.0 mg/mL as a solution in 10 polyethylene glycol (PEG) 400|30 Kleptose (Roquete)|60% water.
# Plasma exposures for Group 1 mice (ng/mL) are presented in Table 2 and for Group 2 mice in Table 3.
# C57BL/6 male mice were administered a single dose of TQS-168 at 50 mg/kg using one of three formulations: Group 1-5.0 mg/ml suspension in 0.5% methylcellulose in PBS; Group 2-5.0 mg/ml solution in PEG400 (Fluka) 10%|Kleptose (Roquette) 30%|sterile water 60%; Group 3-5.0 mg/ml suspension in Labrafil M 1944 CS (Gattefosse) 30%|Masine CC (Gattefosse) 5%|Miglyol 812N 10%|sterile water 55%.
# Plasma concentrations of TQS-168 and TQS-621 were measured overtime.
# [2] = Plasma and brain concentrations after single oral dose 45 mg/kg in mice; type: in vivo; conditions: for Kp: brain, 45 mg/kg, mice, 45 mg/kg p.o.
# Method: Mice were administered a single oral dose of 45 mg/kg TQS-168. TQS-168 was prepared at a concentration of 5.0 mg/mL as a solution in 10% polyethylene glycol (PEG) 400|130% Kleptose (Roquette) 60% water.
# Concentrations in plasma and in brain were measured at various timepoints and various pharmacokinetic parameters were calculated, as shown below in Tables 4 and 5 and in FIGS. 19A and 19B.
# TQS-168 was prepared as a 4.5 mg/ml solution in PEG400 10%| Kleptose 30% sterile water 60%. A single oral dose of 45 mg/kg was administered. Concentrations of TQS-621 were measured in plasma and brain over time.
# [3] = tested on: Ppargc1α (PGC-1α); conditions: Zhang et al., Diabetes 62:1297-1307 (2013); cited from earlier work
# [4] = mice plasma, TQS-168 50 mg/kg p.o., Group 1 (suspension, 0.5% methylcellulose in PBS), individual mouse, 50 mg/kg
# [5] = mice plasma, TQS-168 50 mg/kg p.o., Group 2 (solution, PEG400/Kleptose/water), individual mouse, 50 mg/kg
# [6] = mice plasma, TQS-168 50 mg/kg p.o., Group 3 (suspension, Labrafil/Masine/Miglyol/water), individual mouse, 50 mg/kg
# [7] = mice brain, TQS-168 45 mg/kg p.o., solution PEG 400/Kleptose/water
# [8] = mice plasma, TQS-168 45 mg/kg p.o., solution PEG 400/Kleptose/water
# [9] = mouse, po, mice brain, TQS-168 45 mg/kg p.o., solution PEG 400/Kleptose/water
# [10] = mouse, po, mice plasma, TQS-168 45 mg/kg p.o., solution PEG 400/Kleptose/water
smiles,measurement,setting,value
"CC(C)(C)c1ccc(-c2nc3ccccc3[nH]2)cc1 [TQS-168, 2-(4-tert-butylphenyl)-1H-benzimidazole]",concentration at 12 h,"[1]; 50 mg/kg, 50 mg/kg p.o., Group 2 (solution, PEG 400/Kleptose/water), 12 hr, individual mouse",185 ng/mL
same,concentration at 12 h,"[1]; 50 mg/kg, 50 mg/kg p.o., Group 2 (solution, PEG 400/Kleptose/water), 12 hr, mean",161 ng/mL
same,Cmax,"[1]; mice plasma, 50 mg/kg p.o., Group 2 (solution), 50 mg/kg, read-out: Cmax",7.9 µM
same,AUCInf,[1]; [4],5085 ng·h/mL and 14196 ng·h/mL and 5052 ng·h/mL
same,AUClast,[1]; [4],8046 ng·h/mL and 4822 ng·h/mL
same,Cmax,[1]; [4],1380 ng/mL and 704 ng/mL
same,t1/2,[1]; [4],1.74 h and 9.47 h and 1.70 h
same,AUCInf,[1]; [5],11411 ng·h/mL and 11446 ng·h/mL
same,AUClast,[1]; [5],11058 ng·h/mL and 10525 ng·h/mL
same,Cmax,[1]; [5],2390 ng/mL and 2070 ng/mL
same,t1/2,[1]; [5],2.22 h and 3.41 h
same,AUCInf,[1]; [6],4336 ng·h/mL and 3877 ng·h/mL
same,AUClast,[1]; [6],3924 ng·h/mL and 3753 ng·h/mL
same,Cmax,[1]; [6],752 ng/mL and 420 ng/mL
same,Tmax,[1]; [6],8 h
same,t1/2,[1]; [6],2.23 h and 1.43 h
same,Cmax,"[1]; mice plasma, TQS-168 50 mg/kg p.o., Group 3 (suspension, Labrafil/Masine/Miglyol/water), mean, 50 mg/kg",594 ng/mL
same,Calculated Concentration in plasma,"[1]; 50 mg/kg p.o., Group 1 (suspension, methylcellulose in PBS), 0.25 hr, individual mouse, 50 mg/kg",887 ng/mL and 485 ng/mL
same,Calculated Concentration in plasma,"[1]; 50 mg/kg p.o., Group 1 (suspension, methylcellulose in PBS), 0.5 hr, individual mouse, 50 mg/kg",848 ng/mL and 1380 ng/mL and 619 ng/mL
same,Calculated Concentration in plasma,"[1]; 50 mg/kg p.o., Group 1 (suspension, methylcellulose in PBS), 1 hr, individual mouse, 50 mg/kg",1310 ng/mL and 704 ng/mL
same,Calculated Concentration in plasma,"[1]; 50 mg/kg p.o., Group 1 (suspension, methylcellulose in PBS), 2 hr, individual mouse, 50 mg/kg",839 ng/mL and 1050 ng/mL and 440 ng/mL
same,Calculated Concentration in plasma,"[1]; 50 mg/kg p.o., Group 1 (suspension, methylcellulose in PBS), 4 hr, individual mouse, 50 mg/kg",479 ng/mL and 391 ng/mL
same,Calculated Concentration in plasma,"[1]; 50 mg/kg p.o., Group 1 (suspension, methylcellulose in PBS), 8 hr, individual mouse, 50 mg/kg",254 ng/mL and 603 ng/mL and 480 ng/mL
same,Calculated Concentration in plasma,"[1]; 50 mg/kg p.o., Group 1 (suspension, methylcellulose in PBS), 12 hr, individual mouse, 50 mg/kg",18.0 ng/mL and 450 ng/mL and 93.9 ng/mL
same,Calculated Concentration in plasma,"[1]; 50 mg/kg p.o., Group 1 (suspension, methylcellulose in PBS), 24 hr, individual mouse",BLOQ
same,Calculated Concentration in plasma,"[1]; 50 mg/kg p.o., Group 2 (solution, PEG 400/Kleptose/water), 0.25 hr, individual mouse, 50 mg/kg",874 ng/mL and 1170 ng/mL
same,Calculated Concentration in plasma,"[1]; 50 mg/kg p.o., Group 2 (solution, PEG 400/Kleptose/water), 0.5 hr, individual mouse, 50 mg/kg",2070 ng/mL and 1860 ng/mL
same,Calculated Concentration in plasma,"[1]; 50 mg/kg p.o., Group 2 (solution, PEG 400/Kleptose/water), 1 hr, individual mouse, 50 mg/kg",2390 ng/mL and 2070 ng/mL
same,Calculated Concentration in plasma,"[1]; 50 mg/kg p.o., Group 2 (solution, PEG 400/Kleptose/water), 2 hr, individual mouse, 50 mg/kg",1830 ng/mL and 1630 ng/mL
same,Calculated Concentration in plasma,"[1]; 50 mg/kg p.o., Group 2 (solution, PEG 400/Kleptose/water), 4 hr, individual mouse, 50 mg/kg",1330 ng/mL and 949 ng/mL
same,Calculated Concentration in plasma,"[1]; 50 mg/kg p.o., Group 2 (solution, PEG 400/Kleptose/water), 8 hr, individual mouse, 50 mg/kg",329 ng/mL and 579 ng/mL
same,Calculated Concentration in plasma,"[1]; 50 mg/kg p.o., Group 2 (solution, PEG 400/Kleptose/water), 12 hr, individual mouse, 50 mg/kg",110 ng/mL and 187 ng/mL
same,Calculated Concentration in plasma,"[1]; 50 mg/kg p.o., Group 2 (solution, PEG 400/Kleptose/water), 24 hr, individual mouse",BLOQ
same,AUCExtr,[2]; [7],0.308%
same,AUCInf,[2]; [7],24668 ng·h/g
same,AUCInf/D,[2]; [7],548 kg·ng·h/g/mg
same,AUClast,"[2]; mice brain, TQS-168 45 mg/kg p.o., solution PEG 400/Kleptose/water, last time point 24 hr",24592 ng·h/g
same,AUCExtr,[2]; [8],0.188%
same,AUCInf/D,[2]; [8],302 kg·ng·h/mL/mg
same,Kp,"[2]; mouse, po, read-out: Brain-to-plasma AUC ratio",1.81
same,Kp,"[2]; mouse, po, read-out: Brain-to-plasma Cmax ratio",1.84
same,Cmax,[2]; [9],4260 ng/g
same,MRT inf,[2]; [9],3.45 h
same,Tmax,[2]; [9],1 h
same,half-life,[2]; [9],3.66 h
same,AUC(0-inf),[2]; [10],13600 ng·h/mL
same,Cmax,[2]; [10],2310 ng/mL
same,MRT inf,[2]; [10],3.35 h
same,Tmax,[2]; [10],0.5 h
same,half-life,[2]; [10],3.26 h
same,AUC(0-t),"[2]; mouse, po, mice plasma, TQS-168 45 mg/kg p.o., solution PEG 400/Kleptose/water, last time point 24 hr",13600 ng·h/mL
same,effect on Ppargc1α (PGC-1α) gene expression,[3],activator
